{"source": "patent US20170340598A1", "about": "“Method of Reducing Uric Acid with Fucoxanthin-Containing Composition” (TCI Co., Ltd., priority 2016, published 2017)", "key": {"xanthine oxidase": {"molecular_target": "xanthine oxidase (Homo sapiens, UniProt P47989)", "sequence (P47989 whole entry, species assumed)": "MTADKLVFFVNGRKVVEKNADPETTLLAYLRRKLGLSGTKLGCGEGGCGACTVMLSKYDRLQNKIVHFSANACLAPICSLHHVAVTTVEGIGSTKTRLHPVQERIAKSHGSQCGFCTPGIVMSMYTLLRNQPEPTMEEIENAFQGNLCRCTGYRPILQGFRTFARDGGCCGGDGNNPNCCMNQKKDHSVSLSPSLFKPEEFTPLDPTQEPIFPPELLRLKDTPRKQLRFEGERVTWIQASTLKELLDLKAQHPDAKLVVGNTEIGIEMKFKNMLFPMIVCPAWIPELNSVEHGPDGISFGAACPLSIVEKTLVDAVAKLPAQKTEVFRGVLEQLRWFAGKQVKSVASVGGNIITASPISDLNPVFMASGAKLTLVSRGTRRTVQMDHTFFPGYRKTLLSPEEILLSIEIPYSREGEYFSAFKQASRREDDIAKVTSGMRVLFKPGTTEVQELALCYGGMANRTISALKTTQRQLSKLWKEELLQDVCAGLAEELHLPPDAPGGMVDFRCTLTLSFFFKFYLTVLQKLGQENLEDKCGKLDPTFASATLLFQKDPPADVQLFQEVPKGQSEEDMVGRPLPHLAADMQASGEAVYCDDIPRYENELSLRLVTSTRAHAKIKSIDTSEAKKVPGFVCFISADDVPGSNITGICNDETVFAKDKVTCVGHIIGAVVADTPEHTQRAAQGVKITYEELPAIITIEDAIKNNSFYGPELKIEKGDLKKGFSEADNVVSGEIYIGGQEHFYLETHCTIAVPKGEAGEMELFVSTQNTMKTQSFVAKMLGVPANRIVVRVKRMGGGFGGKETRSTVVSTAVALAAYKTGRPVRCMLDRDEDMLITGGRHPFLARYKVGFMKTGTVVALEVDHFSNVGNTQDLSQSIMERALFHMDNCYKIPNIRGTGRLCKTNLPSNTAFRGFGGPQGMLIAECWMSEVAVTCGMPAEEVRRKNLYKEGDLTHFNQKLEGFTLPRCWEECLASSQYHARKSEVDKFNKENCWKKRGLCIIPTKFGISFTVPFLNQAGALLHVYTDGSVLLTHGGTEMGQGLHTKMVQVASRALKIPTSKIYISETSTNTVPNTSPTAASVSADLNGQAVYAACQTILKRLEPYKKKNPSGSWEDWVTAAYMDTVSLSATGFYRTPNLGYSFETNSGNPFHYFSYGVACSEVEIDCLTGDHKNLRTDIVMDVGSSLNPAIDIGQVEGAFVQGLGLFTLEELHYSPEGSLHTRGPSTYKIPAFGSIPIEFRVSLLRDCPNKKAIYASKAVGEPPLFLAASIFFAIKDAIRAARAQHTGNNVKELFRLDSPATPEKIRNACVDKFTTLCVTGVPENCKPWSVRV", "test": "Evaluation of the inhibition of xanthine oxidase activity", "assay_type": "biochemical", "details": "extract extracted for 120 minutes; fucoxanthin at the same concentration as the extract", "procedure": "50 μL of the test sample, 35 μL of phosphate buffer (70 mM, pH 7.5) and 30 μL of xanthine oxidase (0.02 units/mL) were mixed and shaken, and allowed to stand at room temperature for 15 minutes. Then, 60 μL of xanthine (150 μM) was added and allowed to react at room temperature for 30 minutes; the reaction was then stopped by the addition of 100 μL of the HCl (1N), followed by measuring absorbance at 290 nm. The inhibitory effect of the test sample against xanthine oxidase activity was evaluated and compared with the control group."}, "[1]": {"tested_on": "NOS2 (inducible nitric oxide synthase) gene", "test": "NOS2 gene expression in MSU-induced ADTC5 cells (qPCR)", "assay_type": "cell-based, mouse", "details": "extract 2 mg/ml, fucoxanthin 1 ppm, normalized to β-actin", "procedure": "Next, the cells were treated with monosodium urate (MSU) (0.125 mg/ml, in medium) to induce uric acid crystallization. Cells were divided into three groups: Group 1 was treated with Ascophyllum nodosum extract extracted for 120 minutes (2 mg/ml, in medium); group 2 was treated with fucoxanthin (1 ppm, in medium); group 3 was untreated (the control group). […] Next, reverse transcription was performed using a SuperScript™ reverse transcription kit (Invitrogen). The NOS2 (inducible nitric oxide synthase) gene was quantified using the ABI StepOnePlus™ System (Applied Biosystems), and β-actin was used as a reference gene for normalizing each sample. It is known that accumulation of uric acid crystals in the joints causes inflammation in joint cavities, which leads to the increase of NOS2 gene expression in chondrocytes. Therefore, NOS2 gene expression levels were used to evaluate the degree of inflammation of cells caused by uric acid crystallization. […] Statistical analysis was performed by Student's t-test (Microsoft Excel software)."}}, "data": [{"molecule": "CC(=O)O[C@H]1CC(C)(C)C(=C=C/C(C)=C/C=C/C(C)=C/C=C/C=C(C)/C=C/C=C(\\C)C(=O)C[C@@]23O[C@]2(C)C[C@@H](O)CC3(C)C)[C@](C)(O)C1", "note": "[fucoxanthin]", "values": [{"measurement": "inhibition rate against xanthine oxidase", "setting": "xanthine oxidase", "value": 44, "unit": "%"}, {"measurement": "NOS2 gene expression level (MSU-induced group expressed as 1)", "setting": "[1]; ADTC5 cells co-treated with MSU 0.125 mg/ml for 24 hours", "value": 0.24}, {"measurement": "NOS2 gene expression level (MSU-induced group expressed as 1)", "setting": "[1]; ADTC5 cells co-treated with MSU 0.125 mg/ml for 48 hours", "value": 0.12}]}]}
